The values that follow are results of earlier work, collected in patent EP1219295A1, “Controlled release formulation of valproate” (Abbott Laboratories, priority 2000, dated 2002).

Where two headings read alike, the source gives them in different places.

For data set [1] the following is noted: in vivo.

On to `CCCC(CCC)C(=O)O` [valproic acid, 2-Propylpentanoic acid], for which the half life entry (in adults) was “six and seventeen”; the half life entry (in children) was “four and fourteen”.

As for `CCCC(CCC)C(=O)O` [valproate], the “patients affected by GI irritation” value in data set [1] is given as “up to one third”.
